Measured values as given in ChEMBL document CHEMBL5346952, “Dimer Peptide Ligands of Vascular Endothelial Growth Factor: Optimizing Linker Length for High Affinity and Antiangiogenic Activity” (J Med Chem, 2023).
Starred links: 1 amine or outer side, 2 acyl side, 3 side chain; linkers in the order of their positions; H or OH if unused. Positions of bridges follow the written chain, without caps; N, C: chain ends. Residues, ends and D or L forms follow the SMILES beside them. Chains are numbered I, II in the order given. CO(CH2)2(OCH2CH2)17CO = O=C(CCOCCOCCOCCOCCOCCOCCOCCOCCOCCOCCOCCOCCOCCOCCOCCOCCOCCC(=O)[*:2])[*:1]; X3 = O=C(CCOCCOCCOCCOCCOCCOCCOCCOCCOCCOCCOCCOCCOCCOCCOCCOCCOCCOCCOCCOCCOCCC(=O)[*:2])[*:1]; CO(CH2CH2O)13CH2CH2CO = O=C(CCOCCOCCOCCOCCOCCOCCOCCOCCOCCOCCOCCOCCOCCC(=O)[*:2])[*:1]; CO(CH2CH2O)9CH2CH2CO = O=C(CCOCCOCCOCCOCCOCCOCCOCCOCCOCCC(=O)[*:2])[*:1]

How the values were obtained:
[1] = target: T1, Vascular endothelial growth factor A, long form (Homo sapiens, UniProt P15692); assay: Binding affinity to human VEGF (13 to 107 residues) expressed in Escherichia coli Rosetta (DE3) cells assessed as dissociation constant at 20 degreeC by isothermal titration calorimetry analysis
T1 sequence (P15692 whole entry): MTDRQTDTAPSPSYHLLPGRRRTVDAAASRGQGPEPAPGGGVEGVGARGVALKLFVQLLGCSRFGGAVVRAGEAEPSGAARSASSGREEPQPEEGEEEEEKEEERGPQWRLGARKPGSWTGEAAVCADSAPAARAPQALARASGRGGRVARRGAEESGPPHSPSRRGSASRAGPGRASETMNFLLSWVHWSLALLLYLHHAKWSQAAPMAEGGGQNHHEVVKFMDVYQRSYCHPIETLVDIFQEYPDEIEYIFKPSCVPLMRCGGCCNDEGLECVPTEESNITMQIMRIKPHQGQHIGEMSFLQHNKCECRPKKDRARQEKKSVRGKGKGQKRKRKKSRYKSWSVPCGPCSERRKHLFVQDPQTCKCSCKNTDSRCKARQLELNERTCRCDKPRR

[2] = target: T2, Vascular endothelial growth factor A, long form (Homo sapiens) (UniProt P15692); assay: Binding affinity to human VEGF (13 to 107 residues) expressed in Escherichia coli Rosetta (DE3) cells assessed as Gibbs free energy change at 20 degreeC by isothermal titration calorimetry analysis
T2 sequence (whole entry): T1 sequence (P15692 whole entry)

[3] = target: T2, Vascular endothelial growth factor A, long form (Homo sapiens); assay: Binding affinity to human VEGF (13 to 107 residues) expressed in Escherichia coli Rosetta (DE3) cells assessed as change in enthalpy at 20 degreeC by isothermal titration calorimetry analysis
[4] = target: T2, Vascular endothelial growth factor A, long form (Homo sapiens); assay: Binding affinity to human VEGF (13 to 107 residues) expressed in Escherichia coli Rosetta (DE3) cells assessed as change in entropy at 20 degreeC by isothermal titration calorimetry analysis
[5] = target: T2, Vascular endothelial growth factor A, long form (Homo sapiens); assay: Binding affinity to human VEGF (13 to 107 residues) expressed in Escherichia coli Rosetta (DE3) cells assessed as change in heat capacity at 20 degreeC by isothermal titration calorimetry analysis
[6] = target: T1, Vascular endothelial growth factor A, long form; assay: Binding affinity to human VEGF (13 to 107 residues) expressed in Escherichia coli Rosetta (DE3) cells assessed as dissociation constant at 37 degreeC by isothermal titration calorimetry analysis
[7] = target: T2, Vascular endothelial growth factor A, long form (Homo sapiens); assay: Binding affinity to human VEGF (13 to 107 residues) expressed in Escherichia coli Rosetta (DE3) cells assessed as Gibbs free energy change at 37 degreeC by isothermal titration calorimetry analysis
[8] = target: T2, Vascular endothelial growth factor A, long form (Homo sapiens); assay: Binding affinity to human VEGF (13 to 107 residues) expressed in Escherichia coli Rosetta (DE3) cells assessed as change in enthalpy at 37 degreeC by isothermal titration calorimetry analysis
[9] = target: T2, Vascular endothelial growth factor A, long form (Homo sapiens); assay: Binding affinity to human VEGF (13 to 107 residues) expressed in Escherichia coli Rosetta (DE3) cells assessed as change in entropy at 37 degreeC by isothermal titration calorimetry analysis

`CC[C@H](C)[C@@H]1NC(=O)[C@H](CC(=O)O)NC(=O)[C@@H](NC(C)=O)CSSC[C@@H]2NC(=O)[C@H](CCCCNC(=O)C[C@@H](C(=O)N[C@@H](CC(C)C)C(N)=O)NC(=O)[C@H](CCC(=O)O)NC(=O)[C@H](Cc3ccccc3)NC2=O)NC(=O)[C@H](Cc2c[nH]c3ccccc23)NC(=O)[C@H](CCC(=O)O)NC(=O)[C@H](Cc2c[nH]c3ccccc23)NC(=O)[C@H](CCCCNC(=O)CCOCCOCCOCCOCCOCCOCCOCCOCCOCCOCCOCCOCCOCCOCCOCCOCCOCCOCCOCCOCCOCCC(=O)NCCCC[C@@H]2NC(=O)[C@H](C(C)C)NC(=O)[C@H](Cc3cnc[nH]3)NC(=O)[C@H]([C@@H](C)CC)NC(=O)[C@H](CC(=O)O)NC(=O)[C@@H](NC(C)=O)CSSC[C@@H]3NC(=O)[C@H](CCCCNC(=O)C[C@@H](C(=O)N[C@@H](CC(C)C)C(N)=O)NC(=O)[C@H](CCC(=O)O)NC(=O)[C@H](Cc4ccccc4)NC3=O)NC(=O)[C@H](Cc3c[nH]c4ccccc34)NC(=O)[C@H](CCC(=O)O)NC(=O)[C@H](Cc3c[nH]c4ccccc34)NC2=O)NC(=O)[C@H](C(C)C)NC(=O)[C@H](Cc2cnc[nH]2)NC1=O` (I: Ac-CDIHVKWEWKCFEDL-NH2 / II: Ac-CDIHVKWEWKCFEDL-NH2; disulfide I:1-I:11, II:1-II:11; linker I:6-II:6 via X3; lactam I:10-I:14, II:10-II:14) showed a Kd [1] of 0.015 µM, a deltaG [2] of -10.5 kcal/mol and a deltaH [3] of -36.6 kcal/mol. For the same compound, the -TdeltaS [4] was 26.1 kcal/mol, the DeltaCp [5] was -0.86 kcal/mol/K and the Kd [6] was 0.037 µM. The deltaG [7] was -10.5 kcal/mol, the deltaH [8] was -51.3 kcal/mol and the -TdeltaS [9] was 40.7 kcal/mol.

In the case of `CC[C@H](C)[C@@H]1NC(=O)[C@H](CC(=O)O)NC(=O)[C@@H](NC(C)=O)CSSC[C@@H]2NC(=O)[C@H](CCCCNC(=O)C[C@@H](C(=O)N[C@@H](CC(C)C)C(N)=O)NC(=O)[C@H](CCC(=O)O)NC(=O)[C@H](Cc3ccccc3)NC2=O)NC(=O)[C@H](Cc2c[nH]c3ccccc23)NC(=O)[C@H](CCC(=O)O)NC(=O)[C@H](Cc2c[nH]c3ccccc23)NC(=O)[C@H](CCCCNC(=O)CCOCCOCCOCCOCCOCCOCCOCCOCCOCCOCCOCCOCCOCCOCCOCCOCCOCCC(=O)NCCCC[C@@H]2NC(=O)[C@H](C(C)C)NC(=O)[C@H](Cc3cnc[nH]3)NC(=O)[C@H]([C@@H](C)CC)NC(=O)[C@H](CC(=O)O)NC(=O)[C@@H](NC(C)=O)CSSC[C@@H]3NC(=O)[C@H](CCCCNC(=O)C[C@@H](C(=O)N[C@@H](CC(C)C)C(N)=O)NC(=O)[C@H](CCC(=O)O)NC(=O)[C@H](Cc4ccccc4)NC3=O)NC(=O)[C@H](Cc3c[nH]c4ccccc34)NC(=O)[C@H](CCC(=O)O)NC(=O)[C@H](Cc3c[nH]c4ccccc34)NC2=O)NC(=O)[C@H](C(C)C)NC(=O)[C@H](Cc2cnc[nH]2)NC1=O` (I: Ac-CDIHVKWEWKCFEDL-NH2 / II: Ac-CDIHVKWEWKCFEDL-NH2; disulfide I:1-I:11, II:1-II:11; linker I:6-II:6 via CO(CH2)2(OCH2CH2)17CO; lactam I:10-I:14, II:10-II:14), the Kd [1] is reported as 0.022 µM, the deltaG [2] is reported as -10.3 kcal/mol and the deltaH [3] is reported as -38.1 kcal/mol. It also gave a -TdeltaS [4] of 27.9 kcal/mol, a DeltaCp [5] of -0.6 kcal/mol/K and a Kd [6] of 0.051 µM. For the same compound, the deltaG [7] was -10.4 kcal/mol, the deltaH [8] was -48.3 kcal/mol and the -TdeltaS [9] was 37.9 kcal/mol.

In the case of `COc1ccc([C@H]2CNC(=O)C2)cc1OC1CCCC1` [S-ROLIPRAM], the deltaG [2] is reported as -12.3 kcal/mol, the deltaH [3] is reported as -29.3 kcal/mol and the -TdeltaS [4] is reported as 17 kcal/mol.

`CC[C@H](C)[C@@H]1NC(=O)[C@H](CC(=O)O)NC(=O)[C@@H](NC(C)=O)CSSC[C@@H]2NC(=O)[C@H](CCCCNC(=O)C[C@@H](C(=O)N[C@@H](CC(C)C)C(N)=O)NC(=O)[C@H](CCC(=O)O)NC(=O)[C@H](Cc3ccccc3)NC2=O)NC(=O)[C@H](Cc2c[nH]c3ccccc23)NC(=O)[C@H](CCC(=O)O)NC(=O)[C@H](Cc2c[nH]c3ccccc23)NC(=O)[C@H](CCCCNC(=O)CCOCCOCCOCCOCCOCCOCCOCCOCCOCCOCCOCCOCCOCCC(=O)NCCCC[C@@H]2NC(=O)[C@H](C(C)C)NC(=O)[C@H](Cc3cnc[nH]3)NC(=O)[C@H]([C@@H](C)CC)NC(=O)[C@H](CC(=O)O)NC(=O)[C@@H](NC(C)=O)CSSC[C@@H]3NC(=O)[C@H](CCCCNC(=O)C[C@@H](C(=O)N[C@@H](CC(C)C)C(N)=O)NC(=O)[C@H](CCC(=O)O)NC(=O)[C@H](Cc4ccccc4)NC3=O)NC(=O)[C@H](Cc3c[nH]c4ccccc34)NC(=O)[C@H](CCC(=O)O)NC(=O)[C@H](Cc3c[nH]c4ccccc34)NC2=O)NC(=O)[C@H](C(C)C)NC(=O)[C@H](Cc2cnc[nH]2)NC1=O` (I: Ac-CDIHVKWEWKCFEDL-NH2 / II: Ac-CDIHVKWEWKCFEDL-NH2; disulfide I:1-I:11, II:1-II:11; linker I:6-II:6 via CO(CH2CH2O)13CH2CH2CO; lactam I:10-I:14, II:10-II:14) gave a Kd [1] of 0.02 µM, a deltaG [2] of -10.3 kcal/mol and a deltaH [3] of -36.3 kcal/mol. The -TdeltaS [4] was 26 kcal/mol, the DeltaCp [5] was -0.57 kcal/mol/K and the Kd [6] was 0.056 µM. For the same compound, the deltaG [7] was -10.3 kcal/mol, the deltaH [8] was -46 kcal/mol and the -TdeltaS [9] was 35.7 kcal/mol.

Compound `CC[C@H](C)[C@@H]1NC(=O)[C@H](CC(=O)O)NC(=O)[C@@H](NC(C)=O)CSSC[C@@H]2NC(=O)[C@H](CCCCNC(=O)C[C@@H](C(=O)N[C@@H](CC(C)C)C(N)=O)NC(=O)[C@H](CCC(=O)O)NC(=O)[C@H](Cc3ccccc3)NC2=O)NC(=O)[C@H](Cc2c[nH]c3ccccc23)NC(=O)[C@H](CCC(=O)O)NC(=O)[C@H](Cc2c[nH]c3ccccc23)NC(=O)[C@H](CCCCN)NC(=O)[C@H](C(C)C)NC(=O)[C@H](Cc2cnc[nH]2)NC1=O` (Ac-CDIHVKWEWKCFEDL-NH2; disulfide 1-11; lactam 10-14) has a Kd [1] of 0.129 µM and a Kd [6] of 0.573 µM.

`CC[C@H](C)[C@@H]1NC(=O)[C@H](CC(=O)O)NC(=O)[C@@H](NC(C)=O)CSSC[C@@H]2NC(=O)[C@H](CCCCNC(=O)C[C@@H](C(=O)N[C@@H](CC(C)C)C(N)=O)NC(=O)[C@H](CCC(=O)O)NC(=O)[C@H](Cc3ccccc3)NC2=O)NC(=O)[C@H](Cc2c[nH]c3ccccc23)NC(=O)[C@H](CCC(=O)O)NC(=O)[C@H](Cc2c[nH]c3ccccc23)NC(=O)[C@H](CCCCNC(=O)CCOCCOCCOCCOCCOCCOCCOCCOCCOCCC(=O)NCCCC[C@@H]2NC(=O)[C@H](C(C)C)NC(=O)[C@H](Cc3cnc[nH]3)NC(=O)[C@H]([C@@H](C)CC)NC(=O)[C@H](CC(=O)O)NC(=O)[C@@H](NC(C)=O)CSSC[C@@H]3NC(=O)[C@H](CCCCNC(=O)C[C@@H](C(=O)N[C@@H](CC(C)C)C(N)=O)NC(=O)[C@H](CCC(=O)O)NC(=O)[C@H](Cc4ccccc4)NC3=O)NC(=O)[C@H](Cc3c[nH]c4ccccc34)NC(=O)[C@H](CCC(=O)O)NC(=O)[C@H](Cc3c[nH]c4ccccc34)NC2=O)NC(=O)[C@H](C(C)C)NC(=O)[C@H](Cc2cnc[nH]2)NC1=O` (I: Ac-CDIHVKWEWKCFEDL-NH2 / II: Ac-CDIHVKWEWKCFEDL-NH2; disulfide I:1-I:11, II:1-II:11; linker I:6-II:6 via CO(CH2CH2O)9CH2CH2CO; lactam I:10-I:14, II:10-II:14) showed a Kd [1] of 0.026 µM, a deltaG [2] of -10.2 kcal/mol and a deltaH [3] of -32.8 kcal/mol. It also gave a -TdeltaS [4] of 22.6 kcal/mol, a DeltaCp [5] of -0.55 kcal/mol/K and a Kd [6] of 0.09 µM. For the same compound, the deltaG [7] was -10 kcal/mol, the deltaH [8] was -42.1 kcal/mol and the -TdeltaS [9] was 32.1 kcal/mol.
